Counter-ions that a name gives are not always drawn.
Tests used:
[1] = system: Fibrosarcoma cells
[2] = system: Zn^+2 in fibrosarcoma cells; assay: Imaging of Zn^+2 in fibrosarcoma cells; type: cell-based; settings: added to any of the wells with phosphonate and zinc
[3] = system: Slices of rat brain

| melting point [°C] | Structure (SMILES) | uptake into cells [1] | further results |
| --- | --- | --- | --- |
| 285 to 288 | O=P(O)(O)COc1cccc2cccnc12 (as salt: salt) [Example 2, 8-quinolyloxy methylphosphonic acid] | – | – |
| 291 | O=P(O)(O)COc1ccc2c(c1)[nH]c1ccccc12 [Example 9, 2-carbazolyloxymethyl phosphonic acid] | – | – |
| – | c1ccc(CN(CCN(Cc2ccccn2)Cc2ccccn2)Cc2ccccn2)nc1 [TPEN, N,N,N′,N′-tetrakis(2-pyridylmethyl)ethylenediamine] | – | effect of excess chelator on the cell fluorescence [2]: very significant quenching of the fluorescence |
| – | O=P([O-])([O-])Cn1c2ccccc2c2ccccc21.[Na+].[Na+] [di sodium N-carbazolylmethylphosphonate] | taken up in the cytoplasm within the fibrosarcoma cells | penetration of brain cell types and regions [3]: went into the endothelial and neuronal cells |
| – | Cc1cc(=O)oc2cc(OCP(=O)(O)O)ccc12 [di-sodium salt of Example 5, 4-methylcoumarin 7-oxymethylphosphonic acid] | taken up in the cytoplasm within the fibrosarcoma cells | – |

| Structure (SMILES) | melting point [°C] | uptake into cells [1] | further results |
| --- | --- | --- | --- |
| CCOP(=O)(COc1ccc2c(c1)[nH]c1ccccc12)OCC [Example 8, diethyl-2-carbazolyloxymethylphosphonate] | 159 | taken up in the cytoplasm within the fibrosarcoma cells | – |

Reference: US7629379B2, “Substituted phosphonate fluorescent sensors and use thereof” (Queen Mary & Westfield College, priority 2003, dated 2009)
